Nine molecules from patent US20220362276A1, “Small Molecule Inhibitors of Viral Replication” (The Trustees of Princeton University, priority 2019, published 2022) can be followed below.

Entries after “also recorded” stand apart in the source; their conditions may differ.

The subject of data set [1] is translation of T7-tagBFP-Gluc. In words: Translation inhibition assay (T7-tagBFP-Gluc RNA in Huh7 cells). It is filed as cell-based. The conditions noted are these: 4 days. The text has this: Generation of T7-tagBFP-Gluc. To make the T7-TagBFP-GLuc construct, SP6-TagBFP-2A-FLuc was used as a template and the primers PU-O-6099 and PU-O-6100 were designed to partially anneal immediately upstream and downstream of the SP6 promoter. The unbound portions of PU-O-6099 and PU-O-6100 contained the T7 promoter sequence. […] Next, PCR amplification of the T7-TagBFP-2A backbone was completed using the Q5® High-Fidelity DNA Polymerase and PU-O-6101 and PU-O-6102 as the primers. […] The Gluc insert was then ligated to the T7-TagBFP-2A backbone using the In-Fusion® HD Cloning Kit.
Translation Inhibition Assay. Huh7 cells were seeded at 6,250 cells per well in 96-well format. The cells were then transfected with 50 ng T7-TagBFP-Gluc in vitro transcribed RNA per well. Five hours post-transfection, transfection medium was changed to medium containing isocotoin, ribavirin, cycloheximide, or roclagamide at 6 or 7 different concentrations. DMSO concentration was kept constant in all the wells at 0.125%. For each drug dose, triplicate wells were tested. On day four post-transfection, a luciferase assay was performed on supernatant media to measure Gluc expression.

The test system of a further data set is Huh7 cells. Briefly: ATP-based cell viability assay (CellTiterGlo). The conditions noted are these: ATP live-cell viability assay. On the procedure: Measurement of Cytotoxicity by CellTiterGlo Assay. […] Readout was performed using a Berthold luminometer.
On the technique in general: Cellular ATP, detected with luciferase, serves as a proxy for viable cell number.

Data set [2] deals with p6/Gluc (HEVΔORF2/3[Gluc]) replicon, KernowC1p6 genotype 3. Briefly: Dose titration against p6/Gluc replicon in Huh7 cells, Gaussia luciferase readout. The data set is classed as cell-based, hepatitis E virus. The conditions noted are these: for inhibition of p6/Gluc (HEV) replication, in words: Huh7 cells, supernatant Gluc. As to the method:
Gaussia luciferase assays.
Statistics—calculation of IC50. Half maximal inhibitory concentrations were calculated by graphing dose-titration data as nonlinear curve fits with three parameters using GraphPad Prism (v8.1.2).

Turning to `COc1ccc([C@@]23Oc4cc(OC)cc(OC)c4C2(O)[C@H](O)[C@H](C(=O)N(C)C)[C@H]3c2ccccc2)cc1` (stereo in doubt) [roclagamide, (1R,2R,3S,3aR,8bS)-1,8b-dihydroxy-6,8-dimethoxy-3a-(4-methoxyphenyl)-N,N-dimethyl-3-phenyl-2,3-dihydro-1H-cyclopenta[b][1]benzofuran-2-carboxamide, reference compound], the “suppression of Gluc levels” value in data set [1] is ~10 fold.
With `C=CCNC1=C2C[C@@H](C)C[C@H](OC)[C@H](O)[C@@H](C)/C=C(\C)[C@H](OC(N)=O)[C@@H](OC)/C=C\C=C(/C)C(=O)NC(=CC1=O)C2=O` [17-AAG, [(4E,6Z,8S,9S,10E,12S,13R,14S,16R)-13-hydroxy-8,14-dimethoxy-4,10,12,16-tetramethyl-3,20,22-trioxo-19-(prop-2-enylamino)-2-azabicyclo[16.3.1]docosa-1(21),4,6,10,18-pentaen-9-yl] carbamate, reference compound], the “cytotoxicity / inhibition of cell growth, in words” value (shortened to “cytotoxicity / inhibition”) with Huh7 cells was “cytostatic properties; also recorded: inhibitors of cell growth”. In addition, in data set [2], the “inhibition of p6/Gluc (HEV) replication, in words” value (“inhibition of p6/Gluc” for short) is listed as “inhibited HEV replication; also recorded: potent inhibitors”.
For the molecule `CCNC(=O)c1noc(-c2cc(C(C)C)c(O)cc2O)c1-c1ccc(CN2CCOCC2)cc1` [AUY-922, 5-(2,4-dihydroxy-5-propan-2-ylphenyl)-N-ethyl-4-[4-(morpholin-4-ylmethyl)phenyl]-1,2-oxazole-3-carboxamide, reference compound], the “inhibition of p6/Gluc” value in data set [2] was “inhibited HEV replication; also recorded: potent inhibitors; also recorded: most potent analogs”.
Take `O=C(c1ccc(Cl)cc1)c1ccc(O)cc1O` [IBS102, (4-chlorophenyl)-(2,4-dihydroxyphenyl)methanone]: the “fold greater decrease in RLU than isocotoin” value in data set [2] (25 μM dose, first round of SAR) is “approximately 10 fold”.
With `COc1ccc(-c2c(C)noc2-c2ccc(O)cc2O)cc1` [IBS672, 4-[4-(4-methoxyphenyl)-3-methyl-1,2-oxazol-5-yl]benzene-1,3-diol], the “fold greater decrease in RLU than isocotoin” value in data set [2] (1.5625 μM, second round of SAR) was “approximately 40 fold”.
As for `CC(C)c1cc(-c2n[nH]c(=O)n2-c2ccc3c(ccn3C)c2)c(O)cc1O` [STA-9090, 3-(2,4-dihydroxy-5-propan-2-ylphenyl)-4-(1-methylindol-5-yl)-1H-1,2,4-triazol-5-one, reference compound], the “cytotoxicity / inhibition” value in the data set on Huh7 cells is “cytostatic properties; also recorded: inhibitors of cell growth”. The “inhibition of p6/Gluc” value in data set [2] is reported as “inhibited HEV replication; also recorded: potent inhibitors”.
The like results for `CCNC(=O)c1noc(-c2cc(Cl)c(O)cc2O)c1-c1ccc(OC)cc1` [VER-50589, 5-(5-chloro-2,4-dihydroxyphenyl)-N-ethyl-4-(4-methoxyphenyl)-1,2-oxazole-3-carboxamide, reference compound] were, in that order, “cytostatic properties; also recorded: inhibitors of cell growth” and “inhibited HEV replication; also recorded: potent inhibitors; also recorded: most potent analogs”.
As to `C[C@@H]1C[C@@H]([C@H](O)CC2CC(=O)NC(=O)C2)C(=O)[C@@H](C)C1` [cycloheximide, reference compound], in data set [1], the “suppression of Gluc levels” value is given as ~10 fold.
For `C[C@H]1O[C@@H](O[C@H]2[C@@H](O)C[C@H](O[C@H]3[C@@H](O)C[C@H](O[C@H]4CC[C@@]5(C)[C@H](CC[C@@H]6[C@@H]5CC[C@]5(C)[C@@H](C7=CC(=O)OC7)[C@@H](O)C[C@]65O)C4)O[C@@H]3C)O[C@@H]2C)C[C@H](O)[C@@H]1O` [gitoxin], the “cytotoxicity / inhibition” value in the data set with Huh7 cells was “high cytotoxicity”. Besides, the “inhibition of p6/Gluc” value in data set [2] was “dose-dependent inhibition”.
